Measurements: PubChem BioAssay AID2060512 (Molecular Pharmacology Branch, DTP, NCI, 2025)
Blank lines part the entries; values can stand above or below the compound they belong to.

Tested on: 186277-243-T-J2-PDC complex spheroid viability
Experiment: Anticancer human tumor 186277-243-T-J2-PDC patient-derived colon adenocarcinoma cell line growth inhibition [GQUAD]
Conditions: for IC50: curve of first compound; for viability, T/C: stronger effect = lower value
In short: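 Viability of tumor cells grown as complex spheroids with endothelial and stromal cells, exposed to drug combinations. Top concentration at or near clinical Cmax (else 10 microM), diluted in half-log increments.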

[1] = second compound 0.0316 µM, first compound 0.0316 µM
[2] = second compound 0.0316 µM, first compound 0.1 µM
[3] = second compound 0.0316 µM, first compound 0.316 µM
[4] = second compound 0.0316 µM, first compound 1 µM
[5] = second compound 0.0316 µM, first compound 3.16 µM
[6] = second compound 0.0316 µM, first compound 10 µM
[7] = second compound 0.1 µM, first compound 0.0316 µM
[8] = second compound 0.1 µM, first compound 0.1 µM
[9] = second compound 0.1 µM, first compound 0.316 µM
[10] = second compound 0.1 µM, first compound 1 µM
[11] = second compound 0.1 µM, first compound 3.16 µM
[12] = second compound 0.1 µM, first compound 10 µM
[13] = second compound 0.316 µM, first compound 0.0316 µM
[14] = second compound 0.316 µM, first compound 0.1 µM
[15] = second compound 0.316 µM, first compound 0.316 µM
[16] = second compound 0.316 µM, first compound 1 µM
[17] = second compound 0.316 µM, first compound 3.16 µM
[18] = second compound 0.316 µM, first compound 10 µM
[19] = second compound 1 µM, first compound 0.0316 µM
[20] = second compound 1 µM, first compound 0.1 µM
[21] = second compound 1 µM, first compound 0.316 µM
[22] = second compound 1 µM, first compound 1 µM
[23] = second compound 1 µM, first compound 3.16 µM
[24] = second compound 1 µM, first compound 10 µM
[25] = second compound 3.16 µM, first compound 0.0316 µM
[26] = second compound 3.16 µM, first compound 0.1 µM
[27] = second compound 3.16 µM, first compound 0.316 µM
[28] = second compound 3.16 µM, first compound 1 µM
[29] = second compound 3.16 µM, first compound 3.16 µM
[30] = second compound 3.16 µM, first compound 10 µM
[31] = second compound 10 µM, first compound 0.0316 µM
[32] = second compound 10 µM, first compound 0.1 µM
[33] = second compound 10 µM, first compound 0.316 µM
[34] = second compound 10 µM, first compound 1 µM
[35] = second compound 10 µM, first compound 3.16 µM
[36] = second compound 10 µM, first compound 10 µM
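Wherever viability, T/C is given: 100% = DMSO vehicle control viability.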

IC50 (second compound 0.0316 µM): 985 nM | IC50 (second compound 0.1 µM): 1080 nM | IC50 (second compound 0.316 µM): 1630 nM | IC50 (second compound 1 µM): < 31.6 nM | IC50 (second compound 3.16 µM): 169 nM | IC50 (second compound 10 µM): < 31.6 nM
Compound: COc1cc(C2c3cc4c(cc3C(OC3OC5COC(C)OC5C(O)C3O)C3COC(=O)C23)OCO4)cc(OC)c1O (stereo not given) + Cc1cnc(CNC(=O)c2c(=O)c3ccc(N4CCCN(C)CC4)nc3n3c2sc2ccccc23)cn1
viability, T/C [1]: 105% | viability, T/C [2]: 93.9% | viability, T/C [3]: 78.2% | viability, T/C [4]: 45.1% | viability, T/C [5]: 33.3% | viability, T/C [6]: 15.8% | viability, T/C [7]: 70.8% | viability, T/C [8]: 82.5% | viability, T/C [9]: 69.3% | viability, T/C [10]: 46.5% | viability, T/C [11]: 37.3% | viability, T/C [12]: 20% | viability, T/C [13]: 80.8% | viability, T/C [14]: 69.8% | viability, T/C [15]: 55.9% | viability, T/C [16]: 53.7% | viability, T/C [17]: 53.3% | viability, T/C [18]: 20.3% | viability, T/C [19]: 43.6% | viability, T/C [20]: 50.8% | viability, T/C [21]: 57.5% | viability, T/C [22]: 44.9% | viability, T/C [23]: 42.3% | viability, T/C [24]: 20% | viability, T/C [25]: 50.9% | viability, T/C [26]: 51% | viability, T/C [27]: 51.4% | viability, T/C [28]: 38.8% | viability, T/C [29]: 30.7% | viability, T/C [30]: 19.6% | viability, T/C [31]: 42.7% | viability, T/C [32]: 35% | viability, T/C [33]: 45% | viability, T/C [34]: 47% | viability, T/C [35]: 33.7% | viability, T/C [36]: 17.7%

IC50 (second compound 0.0316 µM): > 10000 nM | IC50 (second compound 0.1 µM): > 10000 nM | IC50 (second compound 0.316 µM): > 10000 nM | IC50 (second compound 1 µM): > 10000 nM | IC50 (second compound 3.16 µM): < 31.6 nM | IC50 (second compound 10 µM): < 31.6 nM
Compound: Cc1cccc(N(C)C(=O)C2C(O)CCN2c2nc(C)cc(C(F)(F)F)c2C#N)c1 (stereo not given) + Cc1cnc(CNC(=O)c2c(=O)c3ccc(N4CCCN(C)CC4)nc3n3c2sc2ccccc23)cn1
viability, T/C [1]: 107% | viability, T/C [2]: 110% | viability, T/C [3]: 109% | viability, T/C [4]: 100% | viability, T/C [5]: 102% | viability, T/C [6]: 117% | viability, T/C [7]: 92.8% | viability, T/C [8]: 93.3% | viability, T/C [9]: 97.4% | viability, T/C [10]: 105% | viability, T/C [11]: 94.8% | viability, T/C [12]: 78.8% | viability, T/C [13]: 73% | viability, T/C [14]: 84.1% | viability, T/C [15]: 75.1% | viability, T/C [16]: 71.7% | viability, T/C [17]: 76.6% | viability, T/C [18]: 88.5% | viability, T/C [19]: 51.6% | viability, T/C [20]: 70.4% | viability, T/C [21]: 68.6% | viability, T/C [22]: 59.5% | viability, T/C [23]: 64.9% | viability, T/C [24]: 65% | viability, T/C [25]: 42.2% | viability, T/C [26]: 52.2% | viability, T/C [27]: 47.9% | viability, T/C [28]: 47.1% | viability, T/C [29]: 52.9% | viability, T/C [30]: 51.9% | viability, T/C [31]: 45.3% | viability, T/C [32]: 45.9% | viability, T/C [33]: 38% | viability, T/C [34]: 41.6% | viability, T/C [35]: 53.1% | viability, T/C [36]: 51.4%

More lines, now with the values behind:

Compound: COc1ncnc(C2CC2)c1-c1ncc2cnn(Cc3ccc(-c4nc(C(F)(F)F)cn4C(C)C)cc3)c2n1 + Cc1[nH]c2ccc(F)cc2c1-c1nc2c3cccnc3c3ncccc3c2[nH]1
IC50 (second compound 0.0316 µM): > 10000 nM | IC50 (second compound 0.1 µM): > 10000 nM | IC50 (second compound 0.316 µM): > 10000 nM | IC50 (second compound 1 µM): > 10000 nM | IC50 (second compound 3.16 µM): > 10000 nM | IC50 (second compound 10 µM): > 10000 nM | viability, T/C [1]: 116% | viability, T/C [2]: 91.6% | viability, T/C [3]: 95.1% | viability, T/C [4]: 84.4% | viability, T/C [5]: 111% | viability, T/C [6]: 97.4% | viability, T/C [7]: 87.5% | viability, T/C [8]: 98.7% | viability, T/C [9]: 99.8% | viability, T/C [10]: 95.2% | viability, T/C [11]: 112% | viability, T/C [12]: 86.2% | viability, T/C [13]: 104% | viability, T/C [14]: 95.7% | viability, T/C [15]: 94.2% | viability, T/C [16]: 111% | viability, T/C [17]: 108% | viability, T/C [18]: 96% | viability, T/C [19]: 92.5% | viability, T/C [20]: 105% | viability, T/C [21]: 107% | viability, T/C [22]: 93.9% | viability, T/C [23]: 116% | viability, T/C [24]: 104% | viability, T/C [25]: 103% | viability, T/C [26]: 115% | viability, T/C [27]: 97.3% | viability, T/C [28]: 102% | viability, T/C [29]: 99.9% | viability, T/C [30]: 89.9% | viability, T/C [31]: 105% | viability, T/C [32]: 101% | viability, T/C [33]: 99.1% | viability, T/C [34]: 94.4% | viability, T/C [35]: 113% | viability, T/C [36]: 97%

Compound: CC1COCCN1c1cc(-c2ccnn2C)c2ccnc(-c3ccn[nH]3)c2n1 (stereo not given) + Cc1cnc(CNC(=O)c2c(=O)c3ccc(N4CCCN(C)CC4)nc3n3c2sc2ccccc23)cn1
IC50 (second compound 0.0316 µM): < 31.6 nM | IC50 (second compound 0.1 µM): < 31.6 nM | IC50 (second compound 0.316 µM): < 31.6 nM | IC50 (second compound 1 µM): < 31.6 nM | IC50 (second compound 3.16 µM): < 31.6 nM | IC50 (second compound 10 µM): < 31.6 nM | viability, T/C [1]: 34.5% | viability, T/C [2]: 16.1% | viability, T/C [3]: 9.69% | viability, T/C [4]: 5.33% | viability, T/C [5]: 6.04% | viability, T/C [6]: 5.15% | viability, T/C [7]: 46.1% | viability, T/C [8]: 22.2% | viability, T/C [9]: 11.5% | viability, T/C [10]: 6.17% | viability, T/C [11]: 6.04% | viability, T/C [12]: 5.5% | viability, T/C [13]: 46.5% | viability, T/C [14]: 30% | viability, T/C [15]: 21% | viability, T/C [16]: 10.3% | viability, T/C [17]: 6.67% | viability, T/C [18]: 5.76% | viability, T/C [19]: 35.3% | viability, T/C [20]: 31.9% | viability, T/C [21]: 24.9% | viability, T/C [22]: 17.1% | viability, T/C [23]: 10.4% | viability, T/C [24]: 5.91% | viability, T/C [25]: 32.1% | viability, T/C [26]: 28.4% | viability, T/C [27]: 26.2% | viability, T/C [28]: 17.8% | viability, T/C [29]: 13.2% | viability, T/C [30]: 6.37% | viability, T/C [31]: 27.9% | viability, T/C [32]: 26% | viability, T/C [33]: 24.6% | viability, T/C [34]: 17.3% | viability, T/C [35]: 12% | viability, T/C [36]: 6.6%

Compound: O=c1[nH]cc(F)c(=O)[nH]1 + Cc1cnc(CNC(=O)c2c(=O)c3ccc(N4CCCN(C)CC4)nc3n3c2sc2ccccc23)cn1
IC50 (second compound 0.0316 µM): > 10000 nM | IC50 (second compound 0.1 µM): > 10000 nM | IC50 (second compound 0.316 µM): > 10000 nM | IC50 (second compound 1 µM): < 31.6 nM | IC50 (second compound 3.16 µM): < 31.6 nM | IC50 (second compound 10 µM): < 31.6 nM | viability, T/C [1]: 106% | viability, T/C [2]: 110% | viability, T/C [3]: 109% | viability, T/C [4]: 98.5% | viability, T/C [5]: 82.9% | viability, T/C [6]: 57% | viability, T/C [7]: 86.4% | viability, T/C [8]: 93.7% | viability, T/C [9]: 99.9% | viability, T/C [10]: 79% | viability, T/C [11]: 93.3% | viability, T/C [12]: 66.3% | viability, T/C [13]: 76.8% | viability, T/C [14]: 73.3% | viability, T/C [15]: 84.7% | viability, T/C [16]: 57.7% | viability, T/C [17]: 75.1% | viability, T/C [18]: 55.1% | viability, T/C [19]: 47.9% | viability, T/C [20]: 56.3% | viability, T/C [21]: 50.7% | viability, T/C [22]: 56.6% | viability, T/C [23]: 64.3% | viability, T/C [24]: 56.3% | viability, T/C [25]: 49.4% | viability, T/C [26]: 44.8% | viability, T/C [27]: 51.5% | viability, T/C [28]: 50.7% | viability, T/C [29]: 61.7% | viability, T/C [30]: 43.7% | viability, T/C [31]: 40.5% | viability, T/C [32]: 41.7% | viability, T/C [33]: 39.2% | viability, T/C [34]: 53.3% | viability, T/C [35]: 48.7% | viability, T/C [36]: 45.9%
